The structures appear in SMILES notation.

In this experiment the target is [35S]-TBPS binding, rat brain cortical membranes. In words: Steroid inhibition of [35S]-TBPS binding. The settings on record: 3 nM [35S]-TBPS, in the presence of 5 mM GABA. The procedure: [^35S]-t-Butylbicyclophosphorothionate (TBPS) binding assays using rat brain cortical membranes in the presence of 5 mM GABA has been described (Gee et al, J. Pharmacol. Exp. Ther. 1987, 241, 346-353; Hawkinson et al, Mol. Pharmacol. 1994, 46, 977-985; Lewin, A. H et al., Mol. Pharmacol. 1989, 35, 189-194).
Briefly, cortices are rapidly removed following decapitation of carbon dioxide-anesthetized Sprague-Dawley rats (200-250 g). The cortices are homogenized in 10 volumes of ice-cold 0.32 M sucrose using a glass/teflon homogenizer and centrifuged at 1500×g for 10 min at 4° C. The resultant supernatants are centrifuged at 10,000×g for 20 min at 4° C. to obtain the P2 pellets. The P2 pellets are resuspended in 200 mM NaCl/50 mM Na—K phosphate pH 7.4 buffer and centrifuged at 10,000×g for 10 min at 4° C. This washing procedure is repeated twice and the pellets are resuspended in 10 volumes of buffer. Aliquots ([…]) of the membrane suspensions are incubated with 3 nM [^35S]-TBPS and […] aliquots of test drug dissolved in dimethyl sulfoxide (DMSO) (final 0.5%) in the presence of 5 mM GABA. The incubation is brought to a final volume of 1.0 mL with buffer. Nonspecific binding is determined in the presence of […] and ranged from 15 to 25%. Following a 90 min incubation at room temp, the assays are terminated by filtration through glass fiber filters (Schleicher and Schuell No. 32) using a cell harvester (Brandel) and rinsed three times with ice-cold buffer. Filter bound radioactivity is measured by liquid scintillation spectrometry. Non-linear curve fitting of the overall data for each drug averaged for each concentration is done using Prism (GraphPad). […] The concentration of test compound producing 50% inhibition (IC50) of specific binding and the maximal extent of inhibition (Imax) are determined for the individual experiments with the same model used for the overall data and then the means±SEM.s of the individual experiments are calculated.
Various compounds are or can be screened to determine their potential as modulators of [^35S]-TBPS binding in vitro. These assays are or can be performed in accordance with the above

For the molecule `COC[C@@]1(O)CC[C@H]2[C@H](CC[C@@H]3[C@@H]2CC[C@]2(C)[C@@H]([C@H](C)n4ncc(C#N)c4N)CC[C@@H]32)C1` [Example 153, 5-amino-1-((S)-1-((3R,5R,8R,9R,10S,13S,14S,17S)-3-hydroxy-3-(methoxymethyl)-13-methylhexadecahydro-1H-cyclopenta[a]phenanthren-17-yl)ethyl)-1H-pyrazole-4-carbonitrile], the IC50 (commonly the concentration that inhibits the measured activity by half) lay within 1000 to 10000 nM.

As to `CCOC[C@@]1(O)CC[C@H]2[C@H](CC[C@@H]3[C@@H]2CC[C@]2(C)[C@@H]([C@@H](C)N(C)S(=O)(=O)c4cccc(C#N)c4)CC[C@@H]32)C1` [Example 70], the IC50 is less than 100 nM.

`C[C@@]1(O)CC[C@H]2[C@H](CC[C@@H]3[C@@H]2CC[C@]2(C)[C@@H](CN4C[C@H](c5ccccc5)CC4=O)CC[C@@H]32)C1` [Example 10, (S)-1-(((3R,5R,8R,9R,10S,13S,14S,17S)-3-hydroxy-3,13-dimethylhexadecahydro-1H-cyclopenta[a]phenanthren-17-yl)methyl)-4-phenylpyrrolidin-2-one]: the IC50 is 100 to 1000 nM.

Turning to `C[C@H]([C@H]1CC[C@H]2[C@@H]3CC[C@@H]4C[C@](C)(O)CC[C@@H]4[C@H]3CC[C@]12C)N(C)C(=O)c1ccccc1` [Example 20, N-((1R)-1-((3R,5R,9R,10S,13S,14S,17S)-3-hydroxy-3,13-dimethylhexadecahydro-1H-cyclopenta[a]phenanthren-17-yl)ethyl)-N-methylbenzamide], the half-inhibitory concentration (IC50) lay within 100 to 1000 nM.

On to `CC[C@@]1(O)CC[C@@]2(C)[C@H](CC[C@@H]3[C@@H]2CC[C@]2(C)[C@@H]([C@H](C)Cn4nccc4C#N)CC[C@@H]32)C1` [Example 64, 1-((S)-2-((3R,5R,8R,9S,10S,13S,14S,17R)-3-ethyl-3-hydroxy-10,13-dimethylhexadecahydro-1H-cyclopenta[a]phenanthren-17-yl)propyl)-1H-pyrazole-5-carbonitrile], for which the IC50 was less than 100 nM.

As for `CC[C@@H](NCc1ccccc1)[C@H]1CC[C@H]2[C@@H]3CC[C@@H]4C[C@@](O)(COC)CC[C@@H]4[C@H]3CC[C@]12C` [Example 214, (3R,5R,8R,9R,10S,13S,14S,17S)-17-((R)-1-(benzylamino)propyl)-3-(methoxymethyl)-13-methylhexadecahydro-1H-cyclopenta[a]phenanthren-3-ol], the IC50 fell in the range of 1000 to 10000 nM.

In the case of `C[C@@]1(O)CC[C@H]2[C@H](CC[C@@H]3[C@@H]2CC[C@]2(C)[C@@H](CNC(=O)c4ccccc4)CC[C@@H]32)C1` [Example 3, N-(((3R,5R,8R,9R,10S,13S,14S,17S)-3-hydroxy-3,13-dimethylhexadecahydro-1H-cyclopenta[a]phenanthren-17-yl)methyl)benzamide], the IC50 was less than 100 nM.

As to `COC[C@@]1(O)CC[C@H]2[C@H](CC[C@@H]3[C@@H]2CC[C@]2(C)[C@@H](CCn4nnnc4C)CC[C@@H]32)C1` [Example 48, (3R,5R,8R,9R,10S,13R,14S,17R)-3-(methoxymethyl)-13-methyl-17-(2-(5-methyl-1H-tetrazol-1-yl)ethyl)hexadecahydro-1H-cyclopenta[a]phenanthren-3-ol], the IC50 is less than 100 nM.

Take `COC[C@@]1(O)CC[C@H]2[C@H](CC[C@@H]3[C@@H]2CC[C@@]2(C)[C@H]3CC[C@]2(O)[C@H](C)Cn2cc(C#N)cn2)C1` [Example 353]: the IC50 was 1000 to 10000 nM.

Consider `COC[C@@]1(O)CC[C@H]2[C@H](CC[C@@H]3[C@@H]2CC[C@]2(C)[C@@H]([C@@H](C)Cn4ccc(C#N)n4)CC[C@@H]32)C1` [Example 36, 1-((R)-2-((3R,5R,8R,9R,10S,13S,14S,17R)-3-hydroxy-3-(methoxymethyl)-13-methylhexadecahydro-1H-cyclopenta[a]phenanthren-17-yl)propyl)-1H-pyrazole-3-carbonitrile], for which the IC50 was less than 100 nM.

As for `CC[C@]12CC[C@H]3[C@@H](CC[C@@H]4C[C@](C)(O)CC[C@@H]43)[C@@H]1CC[C@@H]2[C@H](C)Cn1cc(C#N)cn1` [Example 318, 1-((S)-2-((3R,5R,8R,9R,10S,13S,14S,17R)-13-ethyl-3-hydroxy-3-methylhexadecahydro-1H-cyclopenta[a]phenanthren-17-yl)propyl)-1H-pyrazole-4-carbonitrile], the IC50 was less than 100 nM.

As for `CCOC[C@@]1(O)CC[C@H]2[C@H](CC[C@@H]3[C@@H]2CC[C@]2(C)[C@@H](CNC(=O)c4ccccc4)CC[C@@H]32)C1` [Example 15, N-(((3R,5R,8R,9R,10S,13S,14S,17S)-3-(ethoxymethyl)-3-hydroxy-13-methylhexadecahydro-1H-cyclopenta[a]phenanthren-17-yl)methyl)benzamide], the IC50 is less than 100 nM.

Take `CC[C@@]1(O)CC[C@H]2[C@H](CC[C@@H]3[C@@H]2CC[C@]2(C)[C@@H]([C@H](C)Cn4nccc4C#N)CC[C@@H]32)C1` [Example 274, 1-((S)-2-((3R,5R,8R,9R,10S,13S,14S,17R)-3-ethyl-3-hydroxy-13-methylhexadecahydro-1H-cyclopenta[a]phenanthren-17-yl)propyl)-1H-pyrazole-5-carbonitrile]: the IC50 lay within 100 to 1000 nM.

Regarding `C[C@H](NC(=O)c1ccccn1)[C@H]1CC[C@H]2[C@@H]3CC[C@@H]4C[C@](C)(O)CC[C@@H]4[C@H]3CC[C@]12C` [Example 101], the IC50 fell in the range of 1000 to 10000 nM.

For the molecule `C[C@@]1(O)CC[C@H]2[C@H](CC[C@@H]3[C@@H]2CC[C@]2(C)[C@@H](CC(=O)Nc4ccccc4)CC[C@@H]32)C1` [Example 76, 2-((3R,5R,8R,9R,10S,13R,14S,17R)-3-hydroxy-3,13-dimethylhexadecahydro-1H-cyclopenta[a]phenanthren-17-yl)-N-phenylacetamide], the IC50 lay in the range of 100 to 1000 nM.

Regarding `Cc1cncc(C[C@H](C)[C@H]2CC[C@H]3[C@@H]4CC[C@@H]5C[C@](C)(O)CC[C@@H]5[C@H]4CC[C@]23C)n1` [Example 441], the 50% inhibitory concentration (IC50) is less than 100 nM.

`C[C@@H]([C@H]1CC[C@H]2[C@@H]3CC[C@@H]4C[C@](C)(O)CC[C@@H]4[C@H]3CC[C@]12C)N(C)C(=O)c1ccccc1` [Example 19, N—((S)-1-((3R,5R,8R,9R,10S,13S,14S,17S)-3-hydroxy-3,13-dimethylhexadecahydro-1H-cyclopenta[a]phenanthren-17-yl)ethyl)-N-methylbenzamide]: the IC50 is 1000 to 10000 nM.

Turning to `COC[C@@]1(O)CC[C@H]2[C@H](CC[C@@H]3[C@@H]2CC[C@]2(C)[C@@H]([C@@H](C)Nc4ccc(C#N)cc4C)CC[C@@H]32)C1` [Example 252], the IC50 is less than 100 nM.

On to `C[C@@H](Cn1cc(C#N)cn1)[C@H]1CC[C@H]2[C@@H]3CC[C@@H]4C[C@](C)(O)CC[C@@H]4[C@H]3CC[C@]12C` [Example 51, 1-((R)-2-((3R,5R,8R,9R,10S,13S,14S,17R)-3-hydroxy-3,13-dimethylhexadecahydro-1H-cyclopenta[a]phenanthren-17-yl)propyl)-1H-pyrazole-4-carbonitrile], for which the IC50 is less than 100 nM.

The values are drawn from patent publication US20230322846A9, “NEUROACTIVE STEROIDS AND THEIR METHODS OF USE” (SAGE THERAPEUTICS, INC., priority 2018, published 2023).
